According to ChEMBL document CHEMBL1201862, “PubChem BioAssay data set” (2004):
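Protocol summary: plate cells (96-well), add compound at 5 concentrations, incubate 48 h, interpolate endpoints linearly. Abbreviation: GI50, concentration required for 50% inhibition of growth.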 The source made the active and inactive calls. No stated cut-off is given here; in the data, active = GI50 up to about 1.1 µM and inactive = higher.

Assays:
Assay in all cases: DTP human tumour cell line panel, 48 h
786-0 = tested on: 786-0
A498 = tested on: A498
A549 = tested on: A549
CCRF-CEM = tested on: CCRF-CEM
HOP-92 = tested on: HOP-92
HT-29 = tested on: HT-29
IGROV-1 = tested on: IGROV-1
K562 = tested on: K562
M14 = tested on: M14
MDA-MB-435 = tested on: MDA-MB-435
MDA-N = tested on: MDA-N
NCI-H226 = tested on: NCI-H226
NCI-H23 = tested on: NCI-H23
NCI-H522 = tested on: NCI-H522
SNB-19 = tested on: SNB-19
SNB-75 = tested on: SNB-75
SW-620 = tested on: SW-620
T47D = tested on: T47D
UACC-257 = tested on: UACC-257
UACC-62 = tested on: UACC-62

| SMILES | GI50 (786-0) | GI50 (A498) | GI50 (A549) | GI50 (CCRF-CEM) | GI50 (HOP-92) | GI50 (HT-29) | GI50 (IGROV-1) | GI50 (K562) | GI50 (M14) | GI50 (MDA-MB-435) | GI50 (MDA-N) | GI50 (NCI-H226) | GI50 (NCI-H23) | GI50 (NCI-H522) | GI50 (SNB-19) | GI50 (SNB-75) | GI50 (SW-620) | GI50 (T47D) | GI50 (UACC-257) | GI50 (UACC-62) |
| --- | --- | --- | --- | --- | --- | --- | --- | --- | --- | --- | --- | --- | --- | --- | --- | --- | --- | --- | --- | --- |
| CCCCOc1ccc(NC(=N)Nc2ccc(Cl)cc2)cc1 | 11.1 µM (inactive) | 0.443 µM (active) | 0.741 µM (active) | 0.251 µM (active) | 2.58 µM (inactive) | 0.243 µM (active) | 1.22 µM (inactive) | 3.01 µM (inactive) | 3.66 µM (inactive) | 11.1 µM (inactive) | 5.58 µM (inactive) | 12.7 µM (inactive) | 1.09 µM (active) | 5.86 µM (inactive) | 2.74 µM (inactive) | 4.47 µM (inactive) | 1.03 µM (active) | 0.474 µM (active) | 0.176 µM (active) | 12.3 µM (inactive) |
| COc1ccc2cc(C(=O)CCC(=O)O)ccc2c1 | 22.4 µM (inactive) | > 100 µM (inactive) | > 100 µM (inactive) | > 100 µM (inactive) | > 100 µM (inactive) | > 100 µM (inactive) | > 100 µM (inactive) | > 100 µM (inactive) | > 100 µM (inactive) | > 100 µM (inactive) | > 100 µM (inactive) | > 100 µM (inactive) | > 100 µM (inactive) | > 100 µM (inactive) | > 100 µM (inactive) | 50.1 µM (inactive) | > 100 µM (inactive) | > 100 µM (inactive) | > 100 µM (inactive) | > 100 µM (inactive) |
| O=C(O)/C(Cc1c[nH]nn1)=N\O | > 100 µM (inactive) | > 100 µM (inactive) | > 100 µM (inactive) | > 100 µM (inactive) | > 100 µM (inactive) | > 100 µM (inactive) | > 100 µM (inactive) | > 100 µM (inactive) | > 100 µM (inactive) | > 100 µM (inactive) | > 100 µM (inactive) | > 100 µM (inactive) | > 100 µM (inactive) | > 100 µM (inactive) | > 100 µM (inactive) | > 100 µM (inactive) | > 100 µM (inactive) | > 100 µM (inactive) | > 100 µM (inactive) | > 100 µM (inactive) |
| COC1/C=C/C=C(/C)Cc2cc(O)c(Cl)c(c2)N(C)C(=O)CC(OC(=O)C(C)C)C2(C)OC2C(C)C2CC1(O)NC(=O)O2 (centres undefined) |  | < 0.01 µM (active) | < 0.01 µM (active) | 0.394 µM (active) | 64.9 µM (inactive) | < 0.01 µM (active) | < 0.01 µM (active) | < 0.01 µM (active) | < 0.01 µM (active) | < 0.01 µM (active) | < 0.01 µM (active) | > 100 µM (inactive) | < 0.01 µM (active) | < 0.01 µM (active) | < 0.01 µM (active) | < 0.01 µM (active) | < 0.01 µM (active) | > 100 µM (inactive) | 4.89 µM (inactive) | < 0.01 µM (active) |
| CC(=O)OC/C=C/Cn1nc(Br)c(=O)[nH]c1=O | > 100 µM (inactive) | > 100 µM (inactive) | > 100 µM (inactive) | > 100 µM (inactive) | > 100 µM (inactive) | > 100 µM (inactive) | > 100 µM (inactive) | > 100 µM (inactive) | > 100 µM (inactive) | > 100 µM (inactive) | > 100 µM (inactive) | > 100 µM (inactive) | > 100 µM (inactive) | > 100 µM (inactive) | > 100 µM (inactive) | > 100 µM (inactive) | > 100 µM (inactive) | > 100 µM (inactive) | > 100 µM (inactive) | > 100 µM (inactive) |
| COc1ccc2c(c1)C(=O)c1ccccc1C2 | 73.8 µM (inactive) | 29.7 µM (inactive) | 86.7 µM (inactive) | 25.1 µM (inactive) | 64 µM (inactive) | 58.6 µM (inactive) | 38.8 µM (inactive) | 40.3 µM (inactive) | 93.8 µM (inactive) | 41.7 µM (inactive) | > 100 µM (inactive) | > 100 µM (inactive) | 96.4 µM (inactive) | 47.4 µM (inactive) | > 100 µM (inactive) | 26.5 µM (inactive) | 71.4 µM (inactive) | 19.7 µM (inactive) | 33.8 µM (inactive) | 51.8 µM (inactive) |
| CC(C(=O)OCc1ccccc1)(c1ccco1)N1C(=O)OC(c2ccccc2)C1c1ccccc1 (centres undefined) | > 100 µM (inactive) | > 59.8 µM (inactive) | > 100 µM (inactive) | 4.04 µM (inactive) | > 100 µM (inactive) | > 100 µM (inactive) | > 100 µM (inactive) | 7.18 µM (inactive) | > 100 µM (inactive) | > 100 µM (inactive) | > 51.1 µM (inactive) | > 100 µM (inactive) | > 100 µM (inactive) | > 100 µM (inactive) | > 100 µM (inactive) | > 100 µM (inactive) | > 100 µM (inactive) | 5.96 µM (inactive) | > 100 µM (inactive) | 97.1 µM (inactive) |
| CC(=O)Nc1ccc(S(=O)(=O)/N=C2\C=CC(=O)c3ccccc32)cc1 | 9.25 µM (inactive) | 10.3 µM (inactive) | 9.98 µM (inactive) | 3.37 µM (inactive) | 5.07 µM (inactive) | 13.6 µM (inactive) | 2.58 µM (inactive) | 2.57 µM (inactive) | 4.44 µM (inactive) | 1.84 µM (inactive) | 1.95 µM (inactive) | 5.97 µM (inactive) | 4.22 µM (inactive) | 14.5 µM (inactive) | 11.6 µM (inactive) | 5.4 µM (inactive) | 6.62 µM (inactive) | 8.17 µM (inactive) | 6.22 µM (inactive) | 5.51 µM (inactive) |
| CCN(CC)CCCNc1nc(=O)[nH]c(C)c1C(=O)Nc1c2ccccc2nc2ccccc12 | 11.3 µM (inactive) | 5.22 µM (inactive) | 4.45 µM (inactive) | 5.68 µM (inactive) | 2.63 µM (inactive) | 7.41 µM (inactive) | 6.85 µM (inactive) | 4.75 µM (inactive) | 15.5 µM (inactive) | 5.21 µM (inactive) | 4.86 µM (inactive) | 14.9 µM (inactive) | 7.53 µM (inactive) | 3.63 µM (inactive) | 8.71 µM (inactive) | 10.1 µM (inactive) | 21.4 µM (inactive) | 10.7 µM (inactive) | 15.6 µM (inactive) | 6.32 µM (inactive) |
| CCOC(CN(C)C(=S)Nc1cccc2ccccc12)OCC | > 10 µM (inactive) | 6.95 µM (inactive) | > 10 µM (inactive) | > 10 µM (inactive) | 5.51 µM (inactive) | > 10 µM (inactive) | > 10 µM (inactive) | > 10 µM (inactive) | > 10 µM (inactive) | > 10 µM (inactive) | > 10 µM (inactive) | > 10 µM (inactive) | > 10 µM (inactive) | > 10 µM (inactive) | > 10 µM (inactive) | > 10 µM (inactive) | > 10 µM (inactive) | > 10 µM (inactive) | > 10 µM (inactive) | > 10 µM (inactive) |
| CC1(C)C2CCC1(C)C(NC(=O)COCCOCC(N)=O)C2 (centres undefined) | > 100 µM (inactive) | > 100 µM (inactive) | > 100 µM (inactive) | > 100 µM (inactive) | > 100 µM (inactive) | > 100 µM (inactive) | > 100 µM (inactive) | 32.1 µM (inactive) | > 100 µM (inactive) | > 100 µM (inactive) | > 100 µM (inactive) | > 100 µM (inactive) | > 100 µM (inactive) | > 100 µM (inactive) | > 100 µM (inactive) | > 100 µM (inactive) | > 100 µM (inactive) | > 100 µM (inactive) | > 100 µM (inactive) | > 100 µM (inactive) |
| CCOC(=O)C1(C(N)=O)C(=O)c2ccncc2C1=O (centres undefined) | > 100 µM (inactive) | > 100 µM (inactive) | > 100 µM (inactive) | > 100 µM (inactive) | > 100 µM (inactive) | > 100 µM (inactive) | > 100 µM (inactive) | > 100 µM (inactive) | > 100 µM (inactive) | > 100 µM (inactive) | > 100 µM (inactive) | > 100 µM (inactive) | > 100 µM (inactive) | > 100 µM (inactive) | > 100 µM (inactive) | > 100 µM (inactive) | > 100 µM (inactive) | > 100 µM (inactive) | > 100 µM (inactive) | > 100 µM (inactive) |
| C=C(Cl)C(Cl)(CBr)CCC(Br)C(C)(C)Br (centres undefined) | 1.14 µM (inactive) | 10.5 µM (inactive) | 4.9 µM (inactive) | 6.21 µM (inactive) | 2.76 µM (inactive) | 1.07 µM (active) | 18.2 µM (inactive) | 4.73 µM (inactive) | 16.3 µM (inactive) | 9.44 µM (inactive) | 8.93 µM (inactive) | 20.1 µM (inactive) | 14.2 µM (inactive) | 5.86 µM (inactive) | 8.75 µM (inactive) | 2.12 µM (inactive) | 3 µM (inactive) | 2.25 µM (inactive) | 1.8 µM (inactive) | 9.93 µM (inactive) |
| Cc1c(CCCl)c(N=[N+]=[N-])n2c(nc3ccccc32)c1C#N | 0.601 µM (active) | 1.64 µM (inactive) | 2.12 µM (inactive) | 0.236 µM (active) | 1.25 µM (inactive) | 1.58 µM (inactive) | 1.01 µM (active) | 0.29 µM (active) | 1.25 µM (inactive) | 1.43 µM (inactive) | 1.56 µM (inactive) | 1.82 µM (inactive) | 1.41 µM (inactive) | 0.163 µM (active) | 2.77 µM (inactive) | 1.46 µM (inactive) | 0.355 µM (active) | 0.839 µM (active) | 1.6 µM (inactive) | 1.34 µM (inactive) |
